Data on 22 compounds can be found in US10118918B2, “PRMT5 inhibitors and uses thereof” (Epizyme, Inc., priority 2012, dated 2018).

The test system of one test is Z-138 cells. Put plainly: Z-138 Proliferation Assay (Cell Titer Glo). Format: cell-based. The conditions noted are these: 5 days incubation. The source says: [formula] Z-138 Proliferation Assay
Z-138 suspension cells were purchased from ATCC (American Type Culture Collection, Manassas, Va.). RPMI/Glutamax medium, penicillin-streptomycin, heat inactivated fetal bovine serum were purchased from Life Technologies, Grand Island, N.Y., USA. V-bottom polypropylene 384-well plates were purchased from Greiner Bio-One, Monroe, N.C., USA. Cell culture 384-well white opaque plates were purchased from Perkin Elmer, Waltham, Mass., USA. Cell-Titer Glo® was purchased from Promega Corporation, Madison, Wis., USA. SpectraMax M5 plate reader was purchased from Molecular Devices LLC, Sunnyvale, Calif., USA.
Z-138 suspension cells were maintained in growth medium (RPMI 1640 supplemented with 10% v/v heat inactivated fetal bovine serum and cultured at 37° C. under 5% CO2. Under assay conditions, cells were incubated in assay medium (RPMI 1640 supplemented with 10% v/v heat inactivated fetal bovine serum and 100 units/mL penicillin-streptomycin) at 37° C. under 5% CO2.
For the assessment of the effect of compounds on the proliferation of the Z-138 cell line, exponentially growing cells were plated in 384-well white opaque plates at a density of 10,000 cells/ml in a final volume of 50 μl of assay medium. A compound source plate was prepared by performing triplicate nine-point 3-fold serial dilutions in DMSO, beginning at 10 mM (final top concentration of compound in the assay was 20 μM and the DMSO was 0.2%). A 100 nL aliquot from the compound stock plate was added to its respective well in the cell plate. […] After addition of compounds, assay plates were incubated for 5 days at 37° C., 5% CO2, relative humidity >90%.
Cell viability was measured by quantitation of ATP present in the cell cultures, adding 35 μl of Cell Titer Glo® reagent to the cell plates. Luminescence was read in the SpectraMax M5 microplate reader. The concentration of compound inhibiting cell viability by 50% was determined using a 4-parametric fit of the normalized dose response curves.

The target of another test is PRMT5/MEP50 (Homo sapiens (Human), UniProt O14744). Put plainly: PRMT5 Biochemical Assay (PRMT5/MEP50 enzyme assay on peptide substrate, 3H-SAM Flashplate). The note with it: PRMT5/MEP50 4 nM, 3H-SAM 75 nM, peptide 40 nM. The text has this:
S-adenosylmethionine (SAM), S-adenosylhomocysteine (SAH), bicine, KCl, Tween20, dimethylsulfoxide (DMSO), bovine skin gelatin (BSG), and Tris(2-carboxyethyl)phosphine hydrochloride solution (TCEP) were purchased from Sigma-Aldrich at the highest level of purity possible. ^3H-SAM was purchase from American Radiolabeled Chemicals with a specific activity of 80 Ci/mmol. 384-well streptavidin Flashplates were purchased from PerkinElmer.
Peptide representative of human histone H4 residues 1-15 was synthesized with a C-terminal linker-affinity tag motif and a C-terminal amide cap by 21st Century Biochemicals. The peptide was high high-performance liquid chromatography (HPLC) purified to greater than 95% purity and confirmed by liquid chromatography mass spectrometry (LC-MS). The sequence was Ac-[…][K-Biot]-amide (SEQ ID NO.: 3).
Full-length human PRMT5 (NM_006109.3) transcript variant 1 clone was amplified from a fetal brain cDNA library, incorporating flanking 5′ sequence encoding a FLAG tag ([…]) (SEQ ID NO.: 4) fused directly to Ala 2 of PRMT5. Full-length human MEP50 (NM_024102) clone was amplified from a human testis cDNA library incorporating a 5′ sequence encoding a 6-histidine tag (MHHHHHH) (SEQ ID NO.: 5) fused directly to Arg 2 of MEP50. The amplified genes were sublconed into pENTR/D/TEV (Life Technologies) and subsequently transferred by Gateway™ attL x attR recombination to pDEST8 baculvirus expression vector (Life Technologies).
Recombinant baculovirus and Baculovirus-Infected Insect Cells (BIIC) were generated according to Bac-to-Bac kit instructions (Life Technologies) and Wasilko, 2006, respectively. Protein over-expression was accomplished by infecting exponentially growing Spodoptera frugiperda (SF9) cell culture at 1.2×10^6 cell/ml with a 5000 fold dilution of BIIC stock. Infections were carried out at 27° C. for 72 hours, harvested by centrifugation, and stored at −80° C. for purification.
Flag-PRMT5/6His-MeP50 was eluted with 300 mM Imidazole in the same buffer. The purity of recovered protein was 87%. Reference: Wasilko, D. J. and S. E. Lee: “TIPS: titerless infected-cells preservation and scale-up” Bioprocess J., 5 (2006), pp. 29-32.
General Procedure for PRMT5/MEP50 Enzyme Assays on Peptide Substrates.
The assays were all performed in a buffer consisting of 20 mM Bicine (pH=7.6), 1 mM TCEP, 0.005% BSG, and 0.002% Tween20, prepared on the day of use. Compounds in 100% DMSO (1 ul) were spotted into a polypropylene 384-well V-bottom plates (Greiner) using a Platemate Plus outfitted with a 384-channel head (Thermo Scientific). DMSO (1 ul) was added to Columns 11, 12, 23, 24, rows A-H for the maximum signal control and 1 ul of SAH, a known product and inhibitor of PRMT5/MEP50, was added to columns 11, 12, 23, 24, rows I-P for the minimum signal control. A cocktail (40 ul) containing the PRMT5/MEP50 enzyme and the peptide was added by Multidrop Combi (Thermo-Fisher). The compounds were allowed to incubate with PRMT5/MEP50 for 30 min at 25 degrees Celsius, then a cocktail (10 ul) containing ^3H-SAM was added to initiate the reaction (final volume=51 ul). The final concentrations of the components were as follows: PRMT5/MEP50 was 4 nM, ^3H-SAM was 75 nM, peptide was 40 nM, SAH in the minimum signal control wells was 100 uM, and the DMSO concentration was 1%. The assays were stopped by the addition of non-radioactive SAM (10 ul) to a final concentration of 600 uM, which dilutes the ^3H-SAM to a level where its incorporation into the peptide substrate is no longer detectable. 50 ul of the reaction in the 384-well polypropylene plate was then transferred to a 384-well Flashplate and the biotinylated peptides were allowed to bind to the streptavidin surface for at least 1 hour before being washed three times with 0.1% Tween20 in a Biotek ELx405 plate washer. […]

PRMT5/MEP50, sequence (O14744 other isoform, or with tags, fused parts or gaps): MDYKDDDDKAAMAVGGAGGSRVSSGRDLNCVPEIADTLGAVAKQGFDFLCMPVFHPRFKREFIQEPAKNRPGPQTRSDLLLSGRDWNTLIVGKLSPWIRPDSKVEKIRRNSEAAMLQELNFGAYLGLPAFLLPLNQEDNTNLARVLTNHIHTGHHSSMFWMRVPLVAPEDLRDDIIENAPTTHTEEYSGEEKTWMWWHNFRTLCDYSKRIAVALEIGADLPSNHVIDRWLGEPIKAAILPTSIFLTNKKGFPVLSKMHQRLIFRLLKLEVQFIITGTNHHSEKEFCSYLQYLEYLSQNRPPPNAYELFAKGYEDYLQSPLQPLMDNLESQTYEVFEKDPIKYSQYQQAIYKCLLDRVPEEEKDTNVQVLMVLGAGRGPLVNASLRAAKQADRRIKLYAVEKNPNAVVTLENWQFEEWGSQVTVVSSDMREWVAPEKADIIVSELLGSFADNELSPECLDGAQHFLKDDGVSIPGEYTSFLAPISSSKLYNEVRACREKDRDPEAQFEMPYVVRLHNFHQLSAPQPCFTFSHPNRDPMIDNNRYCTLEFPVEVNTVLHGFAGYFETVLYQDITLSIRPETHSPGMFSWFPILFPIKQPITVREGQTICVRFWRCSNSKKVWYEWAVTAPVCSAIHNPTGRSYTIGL
PRMT5/MEP50, sequence (Q9BQA1 other isoform, or with tags, fused parts or gaps partner): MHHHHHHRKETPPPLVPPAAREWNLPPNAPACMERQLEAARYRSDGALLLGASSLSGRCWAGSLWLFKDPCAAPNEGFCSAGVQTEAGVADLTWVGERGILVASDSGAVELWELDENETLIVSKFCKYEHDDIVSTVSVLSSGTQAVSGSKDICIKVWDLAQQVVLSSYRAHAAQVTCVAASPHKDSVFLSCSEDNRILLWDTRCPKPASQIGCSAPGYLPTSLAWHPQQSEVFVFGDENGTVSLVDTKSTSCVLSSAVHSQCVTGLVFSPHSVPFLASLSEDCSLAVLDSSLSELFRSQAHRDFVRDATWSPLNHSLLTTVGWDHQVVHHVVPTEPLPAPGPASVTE

In general, EC50 refers to the concentration that produces a half-maximal response. Low values mean greater potency, high ones weaker potency. Broadly, the IC50 is the concentration at which inhibition is half-maximal. `C[C@@H](Oc1cccc2cccnc12)C(=O)NC[C@H](O)CN1Cc2ccccc2C1` [compound 5, (R)—N—((S)-2-hydroxy-3-(isoindolin-2-yl)propyl)-2-(quinolin-8-yloxy)propanamide] gave a concentration giving a half-maximal response (EC50) in the test with Z-138 cells (Homo sapiens, 120 h) of 1 to 10 µM. In addition, at PRMT5/MEP50, the half-maximal inhibitory concentration (IC50) is under 0.1 µM.

In the case of `O=C(COc1ccccc1-c1cc[nH]n1)NCC(O)CN1Cc2ccccc2C1` (centres unmarked) [compound 7], the EC50 in the test with Z-138 cells (Homo sapiens, 120 h) is over 20 µM. Further, at PRMT5/MEP50, the half-inhibitory concentration (IC50) was 0.101 to 1 µM.

In the test on Z-138 cells (Homo sapiens, 120 h), `O=C(NCC(O)CN1Cc2ccccc2C1)c1cccc(-c2ccccn2)c1` (centres unmarked) [compound 13, N-(2-hydroxy-3-(isoindolin-2-yl)propyl)-3-(pyridin-2-yl)benzamide] gave an EC50 of over 20 µM. Also, the IC50 at PRMT5/MEP50 was in the range of 0.101 to 1 µM.

With `CN(C)S(=O)(=O)c1ccccc1OCC(=O)NCC(O)CN1Cc2ccccc2C1` (centres unmarked) [compound 15, 2-(2-(N,N-dimethylsulfamoyl)phenoxy)-N-(2-hydroxy-3-(isoindolin-2-yl)propyl)acetamide], the EC50 in the test on Z-138 cells (Homo sapiens, 120 h) was in the range of 1 to 10 µM. For the same compound, the half-maximal inhibitory concentration (IC50) on PRMT5/MEP50 was under 0.1 µM.

On to `O=C(COc1cccc2cccnc12)NCC(O)CN1Cc2ccccc2C1` (centres unmarked) [compound 19, N-(2-hydroxy-3-(isoindolin-2-yl)propyl)-2-(quinolin-8-yloxy)acetamide], for which the half-maximal effective concentration (EC50) in the test with Z-138 cells (Homo sapiens, 120 h) is over 20 µM. In addition, the concentration for half-maximal inhibition (IC50) on PRMT5/MEP50 was in the range of 0.101 to 1 µM.

Take `O=C(NC[C@H](O)CN1Cc2ccccc2C1)c1cccc(NC2CCOCC2)c1` [compound 28]: in the test with Z-138 cells (Homo sapiens, 120 h), the half-maximal effective concentration (EC50) lay in the range of 10 to 50 µM. Further, the 50% inhibitory concentration (IC50) at PRMT5/MEP50 was under 0.1 µM.

For the compound `O=C(NC[C@H](O)CN1Cc2ccccc2C1)c1cc(NC2CCOCC2)ncn1` [compound 29], the EC50 in the test on Z-138 cells (Homo sapiens, 120 h) lay within 1 to 10 µM. At PRMT5/MEP50, the half-inhibitory concentration (IC50) is under 0.1 µM.

As for `Cc1nc(NC2COC2)cc(C(=O)NC[C@H](O)CN2Cc3ccccc3C2)n1` [compound 35], the EC50 in the test on Z-138 cells (Homo sapiens, 120 h) is over 20 µM. For the same compound, the IC50 on PRMT5/MEP50 fell in the range of 0.101 to 1 µM.

As for `O=C(NC[C@H](O)CN1Cc2ccccc2C1)c1cc(NC2COC2)nc(C(F)(F)F)n1` [compound 36], the concentration giving a half-maximal response (EC50) in the test with Z-138 cells (Homo sapiens, 120 h) is 10 to 50 µM. For the same compound, the half-inhibitory concentration (IC50) at PRMT5/MEP50 lay within 0.101 to 1 µM.

In the test with Z-138 cells (Homo sapiens, 120 h), `O=C(CCc1nc2ccccc2[nH]1)NCC(O)CN1Cc2ccccc2C1` (centres unmarked) [compound 37] showed an EC50 of over 20 µM. Also, the IC50 at PRMT5/MEP50 is 0.101 to 1 µM.

`O=C(NC[C@H](O)CN1Cc2ccccc2C1)c1cc(NC2COC2)nc(N2CCOCC2)n1` [compound 38] displayed an EC50 with Z-138 cells (Homo sapiens, 120 h) of 1 to 10 µM. The half-maximal inhibitory concentration (IC50) at PRMT5/MEP50 is under 0.1 µM.

Compound `CC(=O)N1CCC(Nc2cc(C(=O)NC[C@H](O)CN3Cc4ccccc4C3)ccn2)CC1` [compound 40] came in with an EC50 with Z-138 cells (Homo sapiens, 120 h) of 0.101 to 1 µM. For the same compound, the IC50 on PRMT5/MEP50 was under 0.1 µM.

For `O=C(NC[C@H](O)CN1CCc2ccccc21)c1cc(NC2COC2)ncn1` [compound 42], in the test on Z-138 cells (Homo sapiens, 120 h), the EC50 is over 5 µM. The IC50 at PRMT5/MEP50 was over 10 µM.

For the compound `CC(=O)N1CCC(Nc2cc(C(=O)NC[C@H](O)CN3CCc4ccccc43)ncn2)CC1` [compound 43], the half-maximal effective concentration (EC50) in the test with Z-138 cells (Homo sapiens, 120 h) is over 5 µM. For the same compound, the half-maximal inhibitory concentration (IC50) on PRMT5/MEP50 is over 10 µM.

For the compound `CC(=O)N1CCC(Nc2cc(C(=O)NC[C@H](O)CN3CCc4ccccc43)ccn2)CC1` [compound 44], the 50% effective concentration (EC50) in the test with Z-138 cells (Homo sapiens, 120 h) is over 5 µM. The IC50 at PRMT5/MEP50 was over 10 µM.

For `O=C(NC[C@H](O)CN1CCCCc2ccccc21)c1cc(NC2COC2)ncn1` [compound 45], the concentration giving a half-maximal response (EC50) with Z-138 cells (Homo sapiens, 120 h) was over 5 µM. For the same compound, the 50% inhibitory concentration (IC50) at PRMT5/MEP50 was over 10 µM.

Regarding `CC(=O)N1CC(Nc2cc(C(=O)NC[C@H](O)CN3CCCCc4ccccc43)ncn2)C1` [compound 46], in the test on Z-138 cells (Homo sapiens, 120 h), the EC50 is over 5 µM. Moreover, the IC50 at PRMT5/MEP50 was over 10 µM.

For `CC(=O)N1CCC(Nc2cc(C(=O)NC[C@H](O)CN3CCCCc4ccccc43)ncn2)CC1` [compound 47], the 50% effective concentration (EC50) in the test with Z-138 cells (Homo sapiens, 120 h) is over 5 µM. For the same compound, the IC50 on PRMT5/MEP50 lay within 1 to 10 µM.

The compound `O=C(NC[C@H](O)CN1CCCc2ccccc2C1)c1cc(NC2COC2)ncn1` [compound 48] yielded an EC50 in the test with Z-138 cells (Homo sapiens, 120 h) of over 5 µM. In addition, the half-inhibitory concentration (IC50) at PRMT5/MEP50 was over 10 µM.

`CC(=O)N1CC(Nc2cc(C(=O)NC[C@H](O)CN3CCCc4ccccc4C3)ncn2)C1` [compound 49]: the EC50 in the test with Z-138 cells (Homo sapiens, 120 h) was over 5 µM. Besides, the concentration for half-maximal inhibition (IC50) on PRMT5/MEP50 was in the range of 1 to 10 µM.

In the case of `CC(=O)N1CCC(Nc2cc(C(=O)NC[C@H](O)CN3CCCc4ccccc4C3)ncn2)CC1` [compound 50], in the test with Z-138 cells (Homo sapiens, 120 h), the concentration giving a half-maximal response (EC50) is over 5 µM. Also, at PRMT5/MEP50, the IC50 is over 10 µM.

With “N-(2-hydroxy-3-(isoindolin-2-yl)propyl)-2-((4-methyl-3,4-dihydro-2H-benzo[b][1,4]oxazin-5-yl)oxy)acetamide [compound 10]”, in the test with Z-138 cells, the concentration giving a half-maximal response (EC50) was over 20 µM. Moreover, the 50% inhibitory concentration (IC50) on PRMT5/MEP50 was in the range of 0.101 to 1 µM.
